Measurements from article PMC6914834, “New Dihydroisocoumarin Root Growth Inhibitors From the Sponge-Derived Fungus Aspergillus sp. NBUF87” (Frontiers in Microbiology, 2019).
Converted amounts (≈) assume the structure as drawn. Read-outs that look alike come from different tables or passages of the source. Blank lines part the entries; values can stand above or below the molecule they belong to.

Key:
[1] = test system: AGS; assay: In vitro cancer cell cytotoxicity (MTT), AGS; assay type: cell-based; details: Homo sapiens, positive control, quantity not given
Protocol: (§1) 7-Ethyl-10-hydroxycamptothecin (1.3, 10.8, 9.9, and 4.2 nM, respectively) was used as the positive control against four above-mentioned human cancer cell lines.

[2] = test system: MDA-MB-231; assay: In vitro cancer cell cytotoxicity (MTT), MDA-MB-231; details: Homo sapiens, MDA-MB-231, read-out: cytotoxicity of positive control, MDA-MB-231
[3] = test system: CCRF-CEM; assay: In vitro cancer cell cytotoxicity (MTT), CCRF-CEM; assay type: cell-based; details: Homo sapiens, positive control, quantity not given
Protocol: as §1

[4] = test system: HCT-116; assay: In vitro cancer cell cytotoxicity (MTT), HCT-116; assay type: cell-based; details: Homo sapiens, positive control, quantity not given
Protocol: as §1

[5] = test system: Plasmodium falciparum W2; assay: In vitro antimalarial activity assay; assay type: cell-based
Protocol: The in vitro antimalarial activity of the compounds was evaluated against the parasite (Plasmodium falciparum W2), which was cultured continuously according to a previously described method ([Lazaro et al., 2006]).

[6] = test system: methicillin-resistant Staphylococcus aureus ATCC43300; assay: Antibacterial activity assay, MRSA; assay type: cell-based; details: 96-well plates, read-out: MIC, methicillin-resistant S. aureus ATCC43300
Protocol: Compounds 1−11 were evaluated for their antibacterial activities against methicillin-resistant Staphylococcus aureus ATCC43300 and Escherichia coli ATCC25922 in 96-well plates according to the method described by [Gu et al. (2018)]. Ciprofloxacin was selected as a positive control against the above-mentioned bacteria with MIC values of 0.5 μg/mL.

[7] = test system: Arabidopsis thaliana Columbia-0 (Col-0); assay: Plant growth response assay (root growth); assay type: in vivo; details: 100 μM
Protocol: Arabidopsis thaliana Col-0, a model organism for plant growth and development, was used to test each isolated compound according to a previously described protocol ([Li X. et al., 2018]; [Huang et al., 2019]). Plants grown in 2% (v/v) DMSO were used as the negative control. Seeds of Col-0 incubated in 1 μM of 6-benzylaminopurine (BAP) were selected as the positive control. Test samples were dissolved in 2% (v/v) DMSO at various test concentrations for the experiment.

[8] = W2, in vitro, positive controls, read-out: EC50, P. falciparum W2 (positive controls)

SMILES: CCc1c2c(nc3ccc(O)cc13)-c1cc3c(c(=O)n1C2)COC(=O)[C@]3(O)CC [7-Ethyl-10-hydroxycamptothecin]
IC50 [1]: 4.2 nM
IC50 [2]: 10.8 nM
IC50 [3]: 1.3 nM
IC50 [4]: 9.9 nM

SMILES: CCN(CC)CCCC(C)Nc1ccnc2cc(Cl)ccc12 (stereo not shown) [Chloroquine]
EC50 ([5]; W2, read-out: EC50, P. falciparum W2 (positive controls)): 112 nM

SMILES: O=C(O)c1cn(C2CC2)c2cc(N3CCNCC3)c(F)cc2c1=O [Ciprofloxacin]
MIC [6]: 0.5 µg/mL (≈ 1.51 µM)

SMILES: C[C@H](O)CCC[C@@H]1Cc2c(O)ccc(O)c2C(=O)O1 [Compound 1, aspergimarin A]
root growth inhibitory activity in plant growth response assay [7]: root growth inhibitory activity was observed
inhibitory effect on lateral root growth of Col-0 ([7]; 10 days after seed germination): significant inhibitory effect

SMILES: C[C@H](O)CCC[C@H]1OC(=O)c2c(O)cccc2[C@@H]1O [Compound 5, aspergimarin E]
root growth inhibitory activity in plant growth response assay [7]: root growth inhibitory activity was observed
inhibition of primary root growth of Col-0 ([7]; 10 days after seed germination): notable inhibition
inhibitory effect on lateral root growth of Col-0 ([7]; 10 days after seed germination): notable inhibition

Second part, the molecule after the results:

EC50 [5, 8]: 160 nM
SMILES: C[C@@H]1CC[C@H]2[C@@H](C)C(=O)O[C@@H]3O[C@@]4(C)CC[C@@H]1[C@]32OO4 [artemisinin]

EC50 [5, 8]: 2.5 nM
SMILES: O=C1C(O)=C([C@H]2CC[C@H](c3ccc(Cl)cc3)CC2)C(=O)c2ccccc21 [atovaquone]
